# According to patent US5981774A, “Compounds for the treatment of hepatoma” (National Science Council, priority 1993, dated 1999):
# Assays:
# leukemia cells = conditions: Habib et al., 1987; cited from earlier work
# [1] = system: human hepatoma PLC/PRF/5 cells; test: microassay for anticellular effect (cytotoxicity, ED50), PLC/PRF/5 cells; assay type: cell-based; conditions: for ED50 (PLC/PRF/5) / IC50: PLC/PRF/5 cells, % viable cells on day 4, n = 8, significant activity requires ED50 < 4.0 ug/ml; for IC50: Homo sapiens; for inhibitory activity in words (PLC/PRF/5): human hepatoma PLC/PRF/5 cells in vitro
# Protocol: (§1) The name PLC/PRF/5 designates human primary liver cancer cells; the symbol KB designates epidermoid carcinoma cells.
# (§2) PLC/PRF/5 cells were isolated from human hepatoma and are known to produce HBs Ag continuously in culture fluids. The cells were grown as continuous cultures in a growth medium consisting of Dulbecco's modified Eagle medium (DMEM, GIBCO, Grand Island, N.Y.), 10% fetal bovin serum (FBS, GIBCO), 100 IU/ml penicillin, 100 µg/ml streptomycin and 2 mM L-glutamine. The KB cells were maintained on DMEM containing 10% FBS L-glutamine and antibiotics. For the microassay, the growth medium was supplemented further with 10 mM Hepes buffer, pH 7.3.
# (§3) The ED50 values were calculated from a semilog plot of the drug concentration vs. the percentage of viable cells on day 4.
# KB cells [2] = test: microassay for anticellular effect (cytotoxicity, ED50), KB cells; assay type: cell-based, human; conditions: for IC50: Homo sapiens, 96 h; for inhibitory activity in words (KB): KB cells in vitro
# Protocol: as §1, §2, §3
# human PLC/PRF/5 cells = test: Inhibition of Macromolecular Synthesis ([3H]-thymidine, -uridine or -methionine incorporation), PLC/PRF/5 cells; assay type: cell-based; conditions: for dependence of inhibition of macromolecular biosynthesis on concentration and time (PLC/PRF/5): PLC/PRF/5 cells; for effects on DNA, RNA and protein synthesis (PLC/PRF/5): human PLC/PRF/5 cells, FIGS. 1, 3, 5; for suppression of cellular DNA, RNA and protein synthesis: overall conclusion, cell line not stated
# Protocol: (§4) The activity of compounds 16, 17 and 21 on macromolecular synthesis were determined by measuring the isotopic incorporation of [^3 H]-thymidine, -uridine and -methionine in the human PLC/PRF/5 and KB cells respectively.
# (§5) PLC/PRF/5 cells were obtained from human hepatoma and are known to produce HBs Ag continuously in culture fluids. Human hepatoma PLC/PRF/5 and epidermis carcinoma KB cells were maintained in Dulbeceo's modified Eagle medium (DMEM, Gibco BRL Grand Island, N.Y., U.S.A.), containing 10% fetal bovine serum (FBS, Gibco BRL), 2 mM L-glutamine, 100 units mL-1 penicillin, 100 μg mL-l streptomycin. The 212 cells were maintained in Minimum essential alpha medium (MEM, Gibco BRL), containing 10% calf serum (Gibco BRL). For microassay, the growth medium was supplemented with 10 mM HEPES buffer, pH 7.3 and incubated at 37° C. in a CO2 incubation.
# (§6) Inhibition of Macromolecular Synthesis. The synthesis of macromolecules were measured by the incorporation of ^3 H-thymidine, -uridine or -methionine (New England) Nuclear, Boston, Mass., USA) into the tumor cells. Briefly, the tumor cell (1 1.5×10^4 /100 μl/well) maintained in growth medium with or without drugs in microplates were incubated at 37° C. The cells after pulsed labeling with [^3 H]-thymidine, -uridine, or -methionine for 18 hrs at day 4 post-treatment were harvested and loaded onto glass filter paper (Skatron. Va., USA). The incorporation activities of the cells were measured by the liquid scintillation counter (LS-5000 TA, Beckman Calif., USA). All treatments were conducted in quadruplicate and the mean values were used for analysis. Each experiment was repeated at least 3 times. The data shown are mean counts per minute (CPM)±SEM. Percent inhibition of [^3 H]-thymidine, -uridine, or -methionine incorporation was calculated as follows: [formula]
# [3] = system: epidermis carcinoma KB cells; test: Inhibition of Macromolecular Synthesis ([3H]-thymidine, -uridine or -methionine incorporation), KB cells; assay type: cell-based, human; conditions: for effects on DNA, RNA and protein synthesis (KB): FIGS. 2, 4, 6
# Protocol: as §4, §5, §6
# KB cells [4] = conditions: KB cells in vitro; Lin et al., 1991, 1992; cited from earlier work
# [5] = system: human hepatoma PLC/PRF/5 cells; conditions: human hepatoma PLC/PRF/5 cells in vitro; Lin et al., 1991, 1992; cited from earlier work
# [6] = KB cells, % viable cells on day 4, n = 8, significant activity requires ED50 < 4.0 ug/ml
molecule,measurement,setting,value
"3',4'-deoxy-4'-chloropsorspermin-3'-ol",cytotoxic effects against leukemia cells,leukemia cells,strong cytotoxic effects
"3',4'-deoxy-psorospermin",cytotoxic effects against leukemia cells,leukemia cells,strong cytotoxic effects
"3',4'=deoxypsorospermin-3',4'-diol",cytotoxic effects against leukemia cells,leukemia cells,strong cytotoxic effects
"N.N.[Cl][Pt][Cl] [Cisplatin, reference compound]",ED50 (PLC/PRF/5),[1],5.29 µg/mL
same,ED50 (KB),KB cells [2]; [6],0.16 µg/mL
"O=c1c2ccccc2oc2cc(O)ccc12 [Compound 13, 3-hydroxyxanthone]",IC50,"[1]; PLC-PRF-5, 96 h",3.73 µg/mL
same,ED50 (PLC/PRF/5),[1]; 5760 min,3.75 µg/mL
same,inhibitory activity in words (PLC/PRF/5),[1],significant and potent inhibitory activity
same,IC50,KB cells [2]; [6],0.77 µg/mL
same,inhibitory activity in words (KB),KB cells [2],significant and potent inhibitory activity
"O=c1c2ccccc2oc2cc(OCC3CO3)ccc12 (stereo not shown) [Compound 14, 3-(2,3-Epoxypropoxy)xanthone]",IC50,[1]; 96 h,1.43 µg/mL
same,inhibitory activity in words (PLC/PRF/5),[1],enhanced very markedly the inhibitory effects
same,IC50,KB cells [2]; [6],0.85 µg/mL
"O=c1c2ccc(OCC3CO3)cc2oc2ccc(OCC3CO3)cc12 (stereo not shown) [Compound 16, 2,6-di(2,3-epoxypropoxy) xanthone]",IC50,[1]; 96 h,0.23 µg/mL
same,dependence of inhibition of macromolecular biosynthesis on concentration and time (PLC/PRF/5),human PLC/PRF/5 cells,correlated with the concentration and the period of drug treatment
same,"effects on DNA, RNA and protein synthesis (PLC/PRF/5)",human PLC/PRF/5 cells,effects are significant at low concentration
same,"suppression of cellular DNA, RNA and protein synthesis",human PLC/PRF/5 cells,"suppress cellular DNA, RNA and protein synthesis"
same,dependence of inhibition of macromolecular biosynthesis on concentration and time (KB),[3],only correlated with the concentration of drug treatment
same,"effects on DNA, RNA and protein synthesis (KB)",[3],not apparent
same,IC50,KB cells [2]; [6],0.0043 µg/mL
same,inhibitory activity in words (KB),KB cells [2],more potent inhibitory activity
same,ED50 potency relative to cisplatin (KB),"KB cells [2]; KB cells, versus cisplatin",over 40 times
"O=c1c2ccc(OCC3CO3)cc2oc2cc(OCC3CO3)ccc12 (stereo not shown) [Compound 17, 3,6-di(2,3-epoxypropxy)xanthone]",IC50,[1]; 96 h,0.24 µg/mL
same,dependence of inhibition of macromolecular biosynthesis on concentration and time (PLC/PRF/5),human PLC/PRF/5 cells,correlated with the concentration and the period of drug treatment
same,"effects on DNA, RNA and protein synthesis (PLC/PRF/5)",human PLC/PRF/5 cells,effects are significant at low concentration
same,"suppression of cellular DNA, RNA and protein synthesis",human PLC/PRF/5 cells,"suppress cellular DNA, RNA and protein synthesis"
same,dependence of inhibition of macromolecular biosynthesis on concentration and time (KB),[3],only correlated with the concentration of drug treatment
same,"effects on DNA, RNA and protein synthesis (KB)",[3],not apparent
same,IC50,KB cells [2]; [6],0.11 µg/mL
"O=c1c2cccc(OCC3CO3)c2oc2cc(OCC3CO3)cc(O)c12 (stereo not shown) [Compound 21, 3,5-di(2,3-epoxypropoxy)-1-hydroxyxanthone]",IC50,[1]; 96 h,0.061 µg/mL
same,inhibitory activity in words (PLC/PRF/5),[1],significant novel inhibitory activity
same,dependence of inhibition of macromolecular biosynthesis on concentration and time (PLC/PRF/5),human PLC/PRF/5 cells,correlated with the concentration and the period of drug treatment
same,"effects on DNA, RNA and protein synthesis (PLC/PRF/5)",human PLC/PRF/5 cells,effects are significant at low concentration
same,"suppression of cellular DNA, RNA and protein synthesis",human PLC/PRF/5 cells,"suppress cellular DNA, RNA and protein synthesis"
same,dependence of inhibition of macromolecular biosynthesis on concentration and time (KB),[3],only correlated with the concentration of drug treatment
same,"effects on DNA, RNA and protein synthesis (KB)",[3],not apparent
same,IC50,KB cells [2]; [6],0.089 µg/mL
same,inhibitory activity in words (KB),KB cells [2],significant novel inhibitory activity
COc1cc2c(c3oc4c(O)cccc4c(=O)c13)C[C@H]([C@@]1(C)CO1)O2 [Psorospermin],cytotoxic effects against leukemia cells,leukemia cells,strong cytotoxic effects
C=C(C)C1Cc2c(oc3c4c(cc(O)c3c2=O)OC(C)(C)C=C4)-c2c(O)cc(OC)c(O)c21 (stereo not shown) [artomunoxanthone],"cytotoxic effects (KB), isolated natural compounds",KB cells [4],exhibited cytotoxic effects
same,"cytotoxic effects (PLC/PRF/5), isolated natural compounds",[5],exhibited cytotoxic effects
COc1cc2c(cc1O)-c1oc3c4c(cc(O)c3c(=O)c1C(C=C(C)C)O2)OC(C)(C)C=C4 (stereo not shown) [cycloartomunin],"cytotoxic effects (KB), isolated natural compounds",KB cells [4],exhibited cytotoxic effects
same,"cytotoxic effects (PLC/PRF/5), isolated natural compounds",[5],exhibited cytotoxic effects
CC(C)=CC1Oc2cc(O)ccc2-c2oc3cc(O)c(/C=C/C(C)C)c(O)c3c(=O)c21 (stereo not shown) [cyclocommunin],"cytotoxic effects (KB), isolated natural compounds",KB cells [4],exhibited cytotoxic effects
same,"cytotoxic effects (PLC/PRF/5), isolated natural compounds",[5],exhibited cytotoxic effects
CC(C)=CC1Oc2cc(O)ccc2-c2oc3cc(O)cc(O)c3c(=O)c21 (stereo not shown) [cyclocommunol],"cytotoxic effects (KB), isolated natural compounds",KB cells [4],exhibited cytotoxic effects
same,"cytotoxic effects (PLC/PRF/5), isolated natural compounds",[5],exhibited cytotoxic effects
CC(C)=CC1Oc2cc(O)ccc2-c2oc3c4c(cc(O)c3c(=O)c21)OC(C)(C)C=C4 (stereo not shown) [cyclomorusin],"cytotoxic effects (KB), isolated natural compounds",KB cells [4],exhibited cytotoxic effects
same,"cytotoxic effects (PLC/PRF/5), isolated natural compounds",[5],exhibited cytotoxic effects
"O^5 -methyl-3',4'-deoxypsorospermin-3'-ol",cytotoxic effects against leukemia cells,leukemia cells,strong cytotoxic effects
artomunoxanth-otrione epoxide,"cytotoxic effects (KB), isolated natural compounds",KB cells [4],exhibited cytotoxic effects
same,"cytotoxic effects (PLC/PRF/5), isolated natural compounds",[5],exhibited cytotoxic effects
cyclo-mulberrin,"cytotoxic effects (KB), isolated natural compounds",KB cells [4],exhibited cytotoxic effects
same,"cytotoxic effects (PLC/PRF/5), isolated natural compounds",[5],exhibited cytotoxic effects
dihydrocyclo-artomunin,"cytotoxic effects (KB), isolated natural compounds",KB cells [4],exhibited cytotoxic effects
same,"cytotoxic effects (PLC/PRF/5), isolated natural compounds",[5],exhibited cytotoxic effects
dihydroisocycloartomunin,"cytotoxic effects (KB), isolated natural compounds",KB cells [4],exhibited cytotoxic effects
same,"cytotoxic effects (PLC/PRF/5), isolated natural compounds",[5],exhibited cytotoxic effects
